{"source": "patent US7241439B2", "about": "“Biopesticide compositions” (Faculte Universitaire des Sciences Agronomiques de Gembloux, priority 2001, dated 2007)", "key": {"[1]": {"tested_on": "P. expansum", "experiment": "Protection of wounded apples against postharvest rot (lesion diameter)", "assay_type": "in vivo, Penicillium expansum", "description": "(§1) Apples (Malus domestics Borkh cv. Golden) were harvested from commercial orchards maintained with standard cultural practices in Belgium and placed in regular long term storage. Commercial class I fruits were used. They were bought from wholesale dealers and stored in a cold room at 4±1° C. for maximum 15 days before use.\n(§2) B. cinerea (grey mould) and Penicillium expansum (blue mould) strains were initially isolated from strawberries and apples respectively in Gembloux.\n(§3) Conidia from the two pathogenic strains were put in suspension in a glycerol solution (25%) and stored at −70° C. Another storage method consisted of growing the pathogen on Potato Dextrose Agar (PDA) in tubes, covering it then by paraffin oil and keeping the tubes at 25° C. Starting from this stored material, the two fungal strains were transferred to oat medium at 25° C. Conidial suspensions were prepared in an aqueous sterile solution of Tween 20 (0.05%), and were adjusted to the required concentration (10^6 spores/ml) using a Bärker cell.\n(§4) Before use, the micro-organisms were subcultured three times successively at 24 hours intervals on PDA (Potato Dextrose Agar). At the third generation, yeast cells were removed from the culture medium and suspended in isotonic water (NaCl 0.85%). Suspension concentrations were adjusted to the required values after the establishment of a regression line in relation with the micro-organisms suspension absorbance (at 595 nm) and the number of colony forming units (cfu) of the same suspension spread onto PDA.\n(§5) Fruits were disinfected by dipping for 2 minutes in sodium hypochlorite (10% of the commercial product). They were rinsed in sterile water and dried out under laminar flux before being wounded by removing 6 mm diameter and 3 mm deep blocks of tissue from two sites 4-5 cm apart along the equatorial line of the fruits.\n(§6) The wounds were treated by application of 50 μl of compositions of the state of the art or compositions of the invention.\n(§7) After a 24 h at 20° C. incubation period in plastic boxes, the wounds have been inoculated with 50 μl of the respective conidial suspensions of the pathogens. The fruits were incubated during one to three weeks at 25° C.\n[…] Four fruits (8 wounds) were used per treatment.\n(§8) The percentage of protection provided by the different treatments is calculated from the diameter of lesion caused by the fruit rot agent after the incubation time using the following formula:\n(§9) [formula] where Y is the percentage of protection; DT is the mean diameter of lesions for the untreated control and Dx is the mean diameter of lesions for the treated fruits.\n(§10) Vegetal material, pathogens, antagonistic micro-organisms and treatment method were as in example 1. The wounds were treated by application of 50 pi of compositions of the state of the art or compositions of the invention. The effect of the compositions against postharvest apple rots caused by B. cinerea has been evaluated under controlled conditions."}, "[2]": {"tested_on": "B. cinerea", "experiment": "Protection of wounded apples against postharvest rot (lesion diameter)", "assay_type": "in vivo", "description": "as §1, §2, §3, §4, §5, §6, §7\nThe diameters of the lesions developing around the wounds were measured after 7, 10, 14 and up to 20 days after treatment. Four fruits (8 wounds) were used per treatment.\nas §8, §9, §10"}, "[3]": {"tested_on": "P. digitatum", "experiment": "Protection of wounded oranges against green mould", "assay_type": "in vivo, Penicillium digitatum strain CBS31948", "conditions": "Table 7, GA 0.01% w/v", "description": "Oranges (Citrus sinensis (L.) Ohl. cv. Valencia) were bought from wholesale dealers and stored in a cold room at 4±1° C. for maximum 15 days before use.\nPenicillium digitatum strain CBS31948 (green mould of oranges) was obtained from the CentraalBureau Schimmelcultures, Netherlands collection and initially isolated from Citrus fruits. Conidia from the pathogenic strain were put in suspension in a glycerol solution (25%) and stored at −70° C. Starting from this stored material, the fungal strain was transferred to oat medium at 25° C. Conidial suspensions were prepared in an aqueous sterile solution of Tween 20 (0.05%). Before use, suspensions have been adjusted to the required concentration (10^5 spores/ml) using a Barker cell.\nThe antagonistic yeast strain P. anomala “strain K” was obtained as in example 1. C. oleophila strain I-182 commercialised under the name Aspire™ was obtained from Ecogen Inc. Both microorganisms were subcultured as in example 1.\nFruits were disinfected and wounded as in example 1. […] The percentage of protection is calculated as in example 1.\nVegetal material, pathogens, antagonistic agents and treatment method were as in example 3. […] The effect of the compositions against postharvest rots caused by P. digitatum has been evaluated under controlled conditions."}, "[4]": {"conditions": "Table 12, M (mannans) 0.02% w/v"}}, "note": "Where a name gives a salt, the structure may show the parent alone."}
{"molecule": "O.O=C[C@H](O)[C@@H](O)[C@@H](O)[C@H](O)C(=O)O", "note": "[GA, galacturonic acid (monohydrate)]", "values": [{"measurement": "% protection against P. expansum After 7 days", "setting": "[1]; Table 3, GA 0.01% w/v", "result": 18, "unit": "%"}, {"measurement": "% protection against P. expansum after 6 days", "setting": "[1]; Table 4, GA 0.001% w/v", "result": 15, "unit": "%"}, {"measurement": "% protection against P. expansum after 8 days", "setting": "[1]; Table 4, GA 0.001% w/v", "result": 9, "unit": "%"}, {"measurement": "% protection against P. expansum after 10 days", "setting": "[1]; Table 4, GA 0.001% w/v", "result": 7, "unit": "%"}, {"measurement": "% protection against B. cinerea after 7 days", "setting": "[2]; Table 1, GA 0.01% w/v", "result": 49, "unit": "%"}, {"measurement": "% protection against B. cinerea after 10 days", "setting": "[2]; Table 1, GA 0.01% w/v", "result": 42, "unit": "%"}, {"measurement": "% protection against B. cinerea after 14 days", "setting": "[2]; Table 1, GA 0.01% w/v", "result": 22, "unit": "%"}, {"measurement": "% protection against B. cinerea after 20 days", "setting": "[2]; Table 1, GA 0.01% w/v", "result": 2, "unit": "%"}, {"measurement": "% protection against B. cinerea after 7 days", "setting": "[2]; Table 2, GA 0.001% w/v", "result": 87, "unit": "%"}, {"measurement": "% protection against B. cinerea after 10 days", "setting": "[2]; Table 2, GA 0.001% w/v", "result": 47, "unit": "%"}, {"measurement": "% protection against B. cinerea after 14 days", "setting": "[2]; Table 2, GA 0.001% w/v", "result": 33, "unit": "%"}, {"measurement": "% protection against B. cinerea after 20 days", "setting": "[2]; Table 2, GA 0.001% w/v", "result": 0, "unit": "%"}, {"measurement": "% protection against B. cinerea after 7 days", "setting": "[2]; Table 3, GA 0.01% w/v", "result": 12, "unit": "%"}, {"measurement": "% protection against B. cinerea after 7 days", "setting": "[2]; Table 13, GA 0.001% w/v", "result": 87, "unit": "%"}, {"measurement": "% protection against B. cinerea after 10 days", "setting": "[2]; Table 13, GA 0.001% w/v", "result": 47, "unit": "%"}, {"measurement": "% protection against B. cinerea after 14 days", "setting": "[2]; Table 13, GA 0.001% w/v", "result": 33, "unit": "%"}, {"measurement": "% protection against B. cinerea after 20 days", "setting": "[2]; Table 13, GA 0.001% w/v", "result": 0, "unit": "%"}, {"measurement": "% protection against P. digitatum after 7 days", "setting": "[3]", "result": 58, "unit": "%"}, {"measurement": "% protection against P. digitatum after 10 days", "setting": "[3]", "result": 36, "unit": "%"}]}
{"molecule": "O=C[C@H](O)[C@@H](O)[C@H](O)[C@H](O)C(=O)O", "note": "[GU, glucuronic acid (sodium salt)]", "values": [{"measurement": "% protection against B. cinerea after 7 days", "setting": "[2]; Table 1, GU 0.001% w/v", "result": 75, "unit": "%"}, {"measurement": "% protection against B. cinerea after 10 days", "setting": "[2]; Table 1, GU 0.001% w/v", "result": 46, "unit": "%"}, {"measurement": "% protection against B. cinerea after 14 days", "setting": "[2]; Table 1, GU 0.001% w/v", "result": 46, "unit": "%"}, {"measurement": "% protection against B. cinerea after 20 days", "setting": "[2]; Table 1, GU 0.001% w/v", "result": 21, "unit": "%"}, {"measurement": "% protection against B. cinerea after 7 days", "setting": "[2]; Table 2, GU 0.001% w/v", "result": 75, "unit": "%"}, {"measurement": "% protection against B. cinerea after 10 days", "setting": "[2]; Table 2, GU 0.001% w/v", "result": 46, "unit": "%"}, {"measurement": "% protection against B. cinerea after 14 days", "setting": "[2]; Table 2, GU 0.001% w/v", "result": 46, "unit": "%"}, {"measurement": "% protection against B. cinerea after 20 days", "setting": "[2]; Table 2, GU 0.001% w/v", "result": 21, "unit": "%"}]}
{"molecule": "mannans", "values": [{"measurement": "% protection against B. cinerea after 7 days", "setting": "[2]; [4]", "result": 100, "unit": "%"}, {"measurement": "% protection against B. cinerea after 10 days", "setting": "[2]; [4]", "result": 78, "unit": "%"}, {"measurement": "% protection against B. cinerea after 14 days", "setting": "[2]; [4]", "result": 55, "unit": "%"}, {"measurement": "% protection against B. cinerea after 20 days", "setting": "[2]; [4]", "result": 16, "unit": "%"}, {"measurement": "% protection against B. cinerea after 7 days", "setting": "[2]; Table 12, M (mannans) 0.2% w/v", "result": 100, "unit": "%"}, {"measurement": "% protection against B. cinerea after 10 days", "setting": "[2]; Table 12, M (mannans) 0.2% w/v", "result": 93, "unit": "%"}, {"measurement": "% protection against B. cinerea after 14 days", "setting": "[2]; Table 12, M (mannans) 0.2% w/v", "result": 68, "unit": "%"}, {"measurement": "% protection against B. cinerea after 20 days", "setting": "[2]; Table 12, M (mannans) 0.2% w/v", "result": 26, "unit": "%"}, {"measurement": "% protection against B. cinerea after 7 days", "setting": "[2]; Table 13, M 0.02% w/v", "result": 100, "unit": "%"}, {"measurement": "% protection against B. cinerea after 10 days", "setting": "[2]; Table 13, M 0.02% w/v", "result": 78, "unit": "%"}, {"measurement": "% protection against B. cinerea after 14 days", "setting": "[2]; Table 13, M 0.02% w/v", "result": 55, "unit": "%"}, {"measurement": "% protection against B. cinerea after 20 days", "setting": "[2]; Table 13, M 0.02% w/v", "result": 16, "unit": "%"}, {"measurement": "% protection against B. cinerea after 7 days", "setting": "[2]; Table 13, M 0.2% w/v", "result": 100, "unit": "%"}, {"measurement": "% protection against B. cinerea after 10 days", "setting": "[2]; Table 13, M 0.2% w/v", "result": 93, "unit": "%"}, {"measurement": "% protection against B. cinerea after 14 days", "setting": "[2]; Table 13, M 0.2% w/v", "result": 68, "unit": "%"}, {"measurement": "% protection against B. cinerea after 20 days", "setting": "[2]; Table 13, M 0.2% w/v", "result": 28, "unit": "%"}]}
{"molecule": "polygalacturonic acid [PGA, reference compound]", "values": [{"measurement": "% protection against P. expansum after 6 days", "setting": "[1]; Table 4, PGA 0.001% w/v", "result": 19, "unit": "%"}, {"measurement": "% protection against P. expansum after 8 days", "setting": "[1]; Table 4, PGA 0.001% w/v", "result": 12, "unit": "%"}, {"measurement": "% protection against P. expansum after 10 days", "setting": "[1]; Table 4, PGA 0.001% w/v", "result": 10, "unit": "%"}]}
